Test results: article PMC8876616, “Drug Design, Synthesis and Biological Evaluation of Heterocyclic Molecules as Anti-Inflammatory Agents” (Molecules, 2022)
“And” between values parts separate entries of the source, which are not always exact repeats. Equal values may be shown once. “Also recorded” adds a separate entry of the source.

What was measured:
human recombinant COX-2 = molecular target: T1, human recombinant COX-2 (Homo sapiens, UniProt P35354); experiment: In vitro COX-2 colorimetric enzyme assay (Cayman kit, TMPD at 590 nm); format: biochemical; details: for Selectivity (ratio of IC50 for COX-1 to COX-2): IC50 COX-1 divided by IC50 COX-2; for IC50: human recombinant COX-2; for COX-2 selectivity, in words: selectivity ratio compared with indomethacin / other derivatives; for COX-2 inhibition, in words: compared with indomethacin / other derivatives
T1 construct: purchased Cayman Chemicals, Ann Arbor, MI, USA
T1 sequence (P35354 18-604): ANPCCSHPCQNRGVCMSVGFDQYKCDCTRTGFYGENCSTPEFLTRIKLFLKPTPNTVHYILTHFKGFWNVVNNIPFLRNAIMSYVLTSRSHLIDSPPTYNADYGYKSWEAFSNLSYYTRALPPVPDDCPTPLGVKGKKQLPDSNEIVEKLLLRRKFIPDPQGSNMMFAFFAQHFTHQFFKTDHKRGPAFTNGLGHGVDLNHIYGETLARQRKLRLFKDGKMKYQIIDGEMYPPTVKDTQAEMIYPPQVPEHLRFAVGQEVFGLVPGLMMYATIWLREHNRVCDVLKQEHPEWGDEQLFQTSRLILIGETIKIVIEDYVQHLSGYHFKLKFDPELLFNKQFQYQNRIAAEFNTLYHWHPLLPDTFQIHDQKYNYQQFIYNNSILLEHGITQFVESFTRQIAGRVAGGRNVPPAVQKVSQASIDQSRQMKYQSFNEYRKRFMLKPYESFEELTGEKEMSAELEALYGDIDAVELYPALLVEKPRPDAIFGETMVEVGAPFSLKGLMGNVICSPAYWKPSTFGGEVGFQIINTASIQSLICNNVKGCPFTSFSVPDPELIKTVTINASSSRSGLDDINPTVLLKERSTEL
Method: (§1) The assay procedure was followed as per the manufacturer’s protocol with slight modifications. The screening kits consolidate ovine COX-1 as well as human recombinant COX-2 compounds to screen isozyme-specific inhibitors. The test investigates the peroxidase activity by projecting the presence of oxidized TMPD (N, N, N′, N′- tetramethyl-p-phenylenediamine) at 590 nm. The COX-2 selectivity was measured as a ratio of IC50 for COX-1 divided by COX-2 [15].

ovine COX-1 = molecular target: T2, ovine COX-1 (Ovis aries, UniProt P05979); experiment: In vitro COX-1 colorimetric enzyme assay (Cayman kit, TMPD at 590 nm); format: biochemical
T2 construct: purchased Cayman Chemicals, Ann Arbor, MI, USA
T2 sequence (P05979 25-600): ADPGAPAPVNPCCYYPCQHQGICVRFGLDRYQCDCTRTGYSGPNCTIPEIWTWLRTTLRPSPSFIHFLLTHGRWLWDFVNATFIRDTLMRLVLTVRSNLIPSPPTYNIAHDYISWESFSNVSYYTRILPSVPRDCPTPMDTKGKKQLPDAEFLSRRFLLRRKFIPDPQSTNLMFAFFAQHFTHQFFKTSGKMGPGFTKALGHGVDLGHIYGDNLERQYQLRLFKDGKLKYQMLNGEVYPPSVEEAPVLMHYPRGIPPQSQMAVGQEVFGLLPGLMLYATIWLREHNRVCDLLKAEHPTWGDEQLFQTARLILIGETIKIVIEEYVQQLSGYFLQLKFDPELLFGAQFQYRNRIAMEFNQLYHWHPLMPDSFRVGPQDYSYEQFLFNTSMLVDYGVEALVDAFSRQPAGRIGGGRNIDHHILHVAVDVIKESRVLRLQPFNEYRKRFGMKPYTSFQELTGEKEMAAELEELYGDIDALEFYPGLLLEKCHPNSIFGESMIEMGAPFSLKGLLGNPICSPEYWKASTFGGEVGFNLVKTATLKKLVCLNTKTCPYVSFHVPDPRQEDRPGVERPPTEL
Method: as §1

[1] = test system: carrageenan-induced paw oedema; experiment: Carrageenan-induced rat paw oedema; format: in vivo, Wistar rats; details: 2.57 mg/kg oral, 1 h before carrageenan; paw volume after 5 h
Method: All the procedures performed followed the Committee for Control and Supervision of Experiments on Animals (CPCSEA), the Ministry of Social Justice and Empowerment, the Government of India. The in vivo study was performed using Wistar rats (250-300 gm body weight) obtained from the Torrent Research Center, […]. Animals were divided into five groups containing six rats per group and housed under controlled conditions. The temperature and relative humidity of the animal house were kept at 23 ± 2 °C and 55 ± 5%, respectively. Animals were kept under a photo schedule of 12 h light and 12 h dark cycle and given access to food and purified water ad libitum. […] A freshly prepared carrageenan solution (1%w/v, 0.1 mL) was injected into the plantar side of each rat's right hind paw. […] The paw volume was measured using a plethysmometer using the mercury displacement method after 5 h of carrageenan injection.

gastric mucosa = experiment: Effect on the gastric mucosa (ulcerogenic effect); format: in vivo, Wistar rats; details: 2.57 mg/kg oral, six hours after administration, rats
Method: GI side effects were assessed six hours after an oral administration in each group. Animals were euthanized, and stomachs were expelled, opened along the more prominent bend and washed with saline to remove gastric contents. Each stomach was analysed by another researcher, blinded to the treatment groups. The stomach was visually examined for the presence of any lesions, hyperaemia (red tinge) or haemorrhagic spots for evaluation of the presence of ulceration.

Row | Structure (SMILES) | Selectivity (ratio of IC50 for COX-1 to COX-2) (human recombinant COX-2) | IC50 (human recombinant COX-2) | IC50 (ovine COX-1) | COX-2 selectivity, in words (human recombinant COX-2) | Anti-inflammatory activity (inhibition of paw oedema), in words [1] | COX-2 inhibition, in words (human recombinant COX-2) | Ulcerogenic effect (visual examination of stomach), in words (gastric mucosa)
1 | COc1ccc2c(c1)c(CC(=O)Nc1ccccc1)c(C)n2C(=O)c1ccc(Cl)cc1 [Compound 3a, 2-(1(4-chlorobenzoyl),5-methoxy-2-methyl-1H-indol-3-yl)-N-phenylacetamide] | 2.04 | 2.97 ± 0.11 µM | 6.04 ± 0.14 µM |  |  |  | 
2 | COc1ccc2c(c1)c(CC(=O)Nc1ccccc1Cl)c(C)n2C(=O)c1ccc(Cl)cc1 [Compound 3b, 2-(1-(4-chlorobenzoyl),5-methoxy-2-methyl-1H-indol-3-yl)-N-(2-chlorophenyl)acetamide] | 1.41 | 3.28 ± 0.16 µM | 4.61 ± 0.31 µM |  |  |  | 
3 | COc1ccc2c(c1)c(CC(=O)Nc1ccc(F)c(Cl)c1)c(C)n2C(=O)c1ccc(Cl)cc1 [Compound 3c, N-(3-chloro-4-fluorophenyl)-2-(1-(4-chlorobenzoyl)-5-methoxy-2-methyl-1H-indol-3-yl)acetamide] | 0.76 | 1.39 ± 0.32 µM | 1.06 ± 0.1 µM | less than indomethacin | comparable anti-inflammatory activity with the standard |  | 
4 | COc1ccc2c(c1)c(CC(=O)Nc1ccc(F)cc1)c(C)n2C(=O)c1ccc(Cl)cc1 [Compound 3d, 2-(1-(4-chlorobenzoyl)-5-methoxy-2-methyl-1H-indol-3-yl)-N-(4-fluorophenyl)acetamide] |  |  | 5 ± 0.47 µM |  |  |  | 
5 | COc1ccc2c(c1)c(CC(=O)Nc1ccc([N+](=O)[O-])cc1)c(C)n2C(=O)c1ccc(Cl)cc1 [Compound 3e, 2-(1-(4-chlorobenzoyl)-5-methoxy-2-methyl-1H-indol-3-yl)-N-(4-nitrophenyl)acetamide] | 3.32 | 0.344 µM and 0.34 µM | 1.15 ± 0.3 µM | highest selectivity ratio; also recorded: excellent selectivity ratio as compared with the standard | comparable anti-inflammatory activity with the standard | comparable COX-2 inhibition potential to indomethacin; also recorded: particularly significant activity against the COX-2 enzyme | devoid of GI side effects such as ulceration
6 | COc1ccc2c(c1)c(CC(=O)Nc1c(Cl)cccc1Cl)c(C)n2C(=O)c1ccc(Cl)cc1 [Compound 3g, 2-(1-(4-chlorobenzoyl)-5-methoxy-2-methyl-1H-indol-3-yl)-N-(2,6-dichlorophenyl)acetamide] | 1.42 | 2.91 ± 0.38 µM | 4.14 ± 0.25 µM |  |  |  | 
7 | COc1ccc2c(c1)c(CC(=O)NCc1ccccc1)c(C)n2C(=O)c1ccc(Cl)cc1 [Compound 3h, N-benzyl-2-(1-(4-chlorobenzoyl)-5-methoxy-2-methyl-1H-indol-3-yl)acetamide] | 1.06 | 4.73 ± 0.15 µM | 4.99 ± 0.11 µM |  |  | low inhibitory action against COX-2 | 
8 | COc1ccc2c(c1)c(CC(=O)Nc1cccc(C)c1)c(C)n2C(=O)c1ccc(Cl)cc1 [Compound 3i, 2-(1-(4-chlorobenzoyl)-5-methoxy-2-methyl-1H-indol-3-yl)-N-m-tolylacetamide] | 1.12 | 4.22 ± 0.23 µM | 4.71 ± 0.22 µM |  |  | low inhibitory action against COX-2 | 
9 | COc1ccc2c(c1)c(CC(=O)O)c(C)n2C(=O)c1ccc(Cl)cc1 [Indomethacin, 2-(1-(4-chlorobenzoyl)-5-methoxy-2-methyl-1-H-indol-3-yl)acetic acid] |  |  |  |  | significant inhibition of oedema formation |  | small lesions and red colouration; also recorded: small lesions and ulcers
